The test system of data set [1] is Leishmania donovani amastigotes grown in macrophages. The following applies: Wyllie S et al., 2012; cited from earlier work.
A short description of data set [2]: Multiple dosing study in dogs: systemic exposure (plasma) to fexinidazole and its metabolites. In kind it is in vivo, dog. The following applies: dog, in vivo, po, 800 mg/kg/day. The protocol: In an embodiment, the fexinidazole may be administered to the canine as an aqueous oral suspension, comprising 5% TWEEN 80 and 0.5% Methyl cellulose 400 cP (METHOCEL). Provided in this format, fexinidazole suspensions of 5, 20, and 80 mg fexinidazole/mL may be prepared such that 10 mL of each concentration contains 50, 200, and 800 mg fexinidazole, respectively.
Moreover, inventors expect that a wide variety of dosing regimens are now available to the skilled person to achieve the necessary and sufficient fexinidazole plasma levels. For example, and as further outlined in the Examples below, any dosing regimen that produces substantially similar fexinidazole plasma levels, as compared to those levels produced by giving the dogs about 60 mg/kg/day for about twenty-eight days, is expected to substantially or completely eliminate the Leishmania parasites. Table 1 presents the systemic fexinidazole exposure following dosing of dogs with 50, 200, and 800 mg/kg/day.

Results on two compounds are retold here after patent US9585871B2, “Method for treating and curing leishmaniosis using fexinidazole” (Merial Limited, priority 2013, dated 2017).

On to `Cn1c([N+](=O)[O-])cnc1COc1ccc([S+](C)[O-])cc1` (stereo not drawn) [sulfoxide metabolite], for which the “activity against Leishmania donovani amastigotes grown in macrophages” value in data set [1] is recorded as “active”. For the same compound, in data set [2], the AUC0-24 is given as 74.3 ± 14.4^(1) μg · hour/mL.

For the compound `Cn1c([N+](=O)[O-])cnc1COc1ccc(S(C)(=O)=O)cc1` [sulfone metabolite], the “activity against Leishmania donovani amastigotes grown in macrophages” value in data set [1] was “active”.
